According to PubChem BioAssay AID2060892 (Molecular Pharmacology Branch, DTP, NCI, 2025):
Values joined by “and” are separate entries in the source; they are usually repeats but may differ in a detail not shown here. Identical values can stand only once.

System: HOP-62 complex spheroids with HUVEC/MSC, viability
Experiment: Anticancer human tumor HOP-62 cell line growth inhibition [RAS];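 also: spheroids exposed to agents for seven days before readout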;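 as to viability, T/C: 100% = DMSO vehicle control viability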
Details: for viability, T/C: stronger effect = lower value
Method in brief: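 Multi-cell-type spheroids: tumor cells plus HUVEC endothelial cells and mesenchymal stem cells. RAS-pathway inhibitors were combined with targeted agents, each dosed in half-log steps down from clinical Cmax, or from 10 microM when Cmax was unknown.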

[1] = curve of first compound, second compound 0.000949 µM
[2] = curve of first compound, second compound 0.003 µM
[3] = curve of first compound, second compound 0.00949 µM
[4] = curve of first compound, second compound 0.03 µM
[5] = curve of first compound, second compound 0.0949 µM
[6] = curve of first compound, second compound 0.3 µM
[7] = second compound 0.000949 µM, first compound 0.0316 µM
[8] = second compound 0.000949 µM, first compound 0.1 µM
[9] = second compound 0.003 µM, first compound 0.0316 µM
[10] = second compound 0.003 µM, first compound 0.1 µM
[11] = second compound 0.00949 µM, first compound 0.0316 µM
[12] = second compound 0.00949 µM, first compound 0.1 µM
[13] = second compound 0.03 µM, first compound 0.0316 µM
[14] = second compound 0.03 µM, first compound 0.1 µM
[15] = second compound 0.0949 µM, first compound 0.0316 µM
[16] = second compound 0.0949 µM, first compound 0.1 µM
[17] = second compound 0.3 µM, first compound 0.0316 µM
[18] = second compound 0.3 µM, first compound 0.1 µM

## CC(C)n1nc(-c2ccc3oc(N)nc3c2)c2c(N)ncnc21 + CCn1c(-c2cc(N3CCN(C)CC3)cnc2C(C)OC)c2c3cc(ccc31)-c1csc(n1)CC(NC(=O)C1CC1C)C(=O)N1CCCC(N1)C(=O)OCC(C)(C)C2
[1]
  IC50: 0.0328 µM
[2]
  IC50: 0.0153 µM
[3]
  IC50: 0.00838 µM
[4]
  IC50: 0.000644 µM
[5]
  IC50: < 0.000316 µM
[6]
  IC50: < 0.000316 µM
Second compound 0.000949 µM, first compound 0.000316 µM
  viability, T/C: 122%
Second compound 0.000949 µM, first compound 0.001 µM
  viability, T/C: 111%
Second compound 0.000949 µM, first compound 0.00316 µM
  viability, T/C: 71.4%
Second compound 0.000949 µM, first compound 0.01 µM
  viability, T/C: 71.8%
[7]
  viability, T/C: 59.5%
[8]
  viability, T/C: 28.3%
Second compound 0.003 µM, first compound 0.000316 µM
  viability, T/C: 96.2%
Second compound 0.003 µM, first compound 0.001 µM
  viability, T/C: 81.7%
Second compound 0.003 µM, first compound 0.00316 µM
  viability, T/C: 59%
Second compound 0.003 µM, first compound 0.01 µM
  viability, T/C: 65.4%
[9]
  viability, T/C: 44.9%
[10]
  viability, T/C: 23.2%
Second compound 0.00949 µM, first compound 0.000316 µM
  viability, T/C: 64.9%
Second compound 0.00949 µM, first compound 0.001 µM
  viability, T/C: 56.1%
Second compound 0.00949 µM, first compound 0.00316 µM
  viability, T/C: 58.6%
Second compound 0.00949 µM, first compound 0.01 µM
  viability, T/C: 48.9%
[11]
  viability, T/C: 30.7%
[12]
  viability, T/C: 24%
Second compound 0.03 µM, first compound 0.000316 µM
  viability, T/C: 52.5%
Second compound 0.03 µM, first compound 0.001 µM
  viability, T/C: 48.5%
Second compound 0.03 µM, first compound 0.00316 µM
  viability, T/C: 40%
Second compound 0.03 µM, first compound 0.01 µM
  viability, T/C: 32.6%
[13]
  viability, T/C: 21.7%
[14]
  viability, T/C: 22.1%
Second compound 0.0949 µM, first compound 0.000316 µM
  viability, T/C: 38.1%
Second compound 0.0949 µM, first compound 0.001 µM
  viability, T/C: 36.4%
Second compound 0.0949 µM, first compound 0.00316 µM
  viability, T/C: 35.8%
Second compound 0.0949 µM, first compound 0.01 µM
  viability, T/C: 37.5%
[15]
  viability, T/C: 20.6%
[16]
  viability, T/C: 24.6%
Second compound 0.3 µM, first compound 0.000316 µM
  viability, T/C: 37.8%
Second compound 0.3 µM, first compound 0.001 µM
  viability, T/C: 35%
Second compound 0.3 µM, first compound 0.00316 µM
  viability, T/C: 34.4%
Second compound 0.3 µM, first compound 0.01 µM
  viability, T/C: 27.7%
[17]
  viability, T/C: 26.5%
[18]
  viability, T/C: 24.8%

## CCC(CC)c1cc(NC2CCC(N)C2)n2nccc2n1 (stereo unspecified)
Compound 0.0316 µM
  viability, T/C: 115% [middle of 4 runs]
Compound 0.1 µM
  viability, T/C: 112% [middle of 4 runs]
Compound 0.316 µM
  viability, T/C: 112% [middle of 4 runs]
Compound 1 µM
  viability, T/C: 109% and 108% (2×) and 113%
Compound 3.16 µM
  viability, T/C: 9.12% [middle of 4 runs]
Compound 10 µM
  viability, T/C: 1.18% [middle of 4 runs]
Curve of compound
  IC50: 1.9 µM and 1.97 µM and 2.03 µM

## CCC(CC)c1cc(NC2CCC(N)C2)n2nccc2n1 (stereo unspecified) + CCn1c(-c2cc(N3CCN(C)CC3)cnc2C(C)OC)c2c3cc(ccc31)-c1csc(n1)CC(NC(=O)C1CC1C)C(=O)N1CCCC(N1)C(=O)OCC(C)(C)C2
[1]
  IC50: 2.04 µM
[2]
  IC50: 1.89 µM
[3]
  IC50: 1.56 µM
[4]
  IC50: 1.27 µM
[5]
  IC50: 1.02 µM
[6]
  IC50: 0.0316 µM
[7]
  viability, T/C: 116%
[8]
  viability, T/C: 125%
Second compound 0.000949 µM, first compound 0.316 µM
  viability, T/C: 94.3%
Second compound 0.000949 µM, first compound 1 µM
  viability, T/C: 128%
Second compound 0.000949 µM, first compound 3.16 µM
  viability, T/C: 9.48%
Second compound 0.000949 µM, first compound 10 µM
  viability, T/C: 1.8%
[9]
  viability, T/C: 91.4%
[10]
  viability, T/C: 99.2%
Second compound 0.003 µM, first compound 0.316 µM
  viability, T/C: 91.5%
Second compound 0.003 µM, first compound 1 µM
  viability, T/C: 121%
Second compound 0.003 µM, first compound 3.16 µM
  viability, T/C: 8.75%
Second compound 0.003 µM, first compound 10 µM
  viability, T/C: 1.01%
[11]
  viability, T/C: 74.9%
[12]
  viability, T/C: 63.3%
Second compound 0.00949 µM, first compound 0.316 µM
  viability, T/C: 80%
Second compound 0.00949 µM, first compound 1 µM
  viability, T/C: 93.5%
Second compound 0.00949 µM, first compound 3.16 µM
  viability, T/C: 5.73%
Second compound 0.00949 µM, first compound 10 µM
  viability, T/C: 0.77%
[13]
  viability, T/C: 54%
[14]
  viability, T/C: 56.3%
Second compound 0.03 µM, first compound 0.316 µM
  viability, T/C: 57.9%
Second compound 0.03 µM, first compound 1 µM
  viability, T/C: 81.2%
Second compound 0.03 µM, first compound 3.16 µM
  viability, T/C: 2.62%
Second compound 0.03 µM, first compound 10 µM
  viability, T/C: 0.93%
[15]
  viability, T/C: 40.1%
[16]
  viability, T/C: 49.5%
Second compound 0.0949 µM, first compound 0.316 µM
  viability, T/C: 52.8%
Second compound 0.0949 µM, first compound 1 µM
  viability, T/C: 61.5%
Second compound 0.0949 µM, first compound 3.16 µM
  viability, T/C: 2.26%
Second compound 0.0949 µM, first compound 10 µM
  viability, T/C: 2.34%
[17]
  viability, T/C: 33.1%
[18]
  viability, T/C: 43.1%
Second compound 0.3 µM, first compound 0.316 µM
  viability, T/C: 47.9%
Second compound 0.3 µM, first compound 1 µM
  viability, T/C: 50.8%
Second compound 0.3 µM, first compound 3.16 µM
  viability, T/C: 6.58%
Second compound 0.3 µM, first compound 10 µM
  viability, T/C: 1.42%
